Data reported in patent US20250215010A1, “DIAZABICYCLOOCTANE DERIVATIVES USEFUL AS MATRIX METALLOPROTEINASE INHIBITORS” (VASA THERAPEUTICS SPOLKA Z OGRANICZONA ODPOWIEDZIALNOSCIA, priority 2022, published 2025).
Like-named read-outs stand apart in the source and are kept apart here.

Key:
Assay type in all cases: biochemical
MMP9 = MMP9 (Homo sapiens, UniProt P14780); assay: MMP-9 colorimetric inhibition assay (Enzo kit BML-AK410); conditions: thiopeptide substrate, absorbance 415 nm; read-out: MMP 9 IC50 class
Procedure, shortened: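 Colorimetric thioester-substrate assay: hydrolysis of Ac-PLG-[2-mercapto-4-methylpentanoyl]-LG-OC2H5 frees a thiol that reacts with DTNB, read at 415 nm. Run per kit protocol. IC50 (nM) taken from inhibition curves of normalized values.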

MMP2 = molecular target: T1, MMP2 (Homo sapiens, UniProt P08253); assay: MMP-2 colorimetric inhibition assay (Enzo kit BML-AK408); conditions: thiopeptide substrate, absorbance 415 nm; read-out: MMP 2 IC50 class
T1 sequence (P08253 110-660): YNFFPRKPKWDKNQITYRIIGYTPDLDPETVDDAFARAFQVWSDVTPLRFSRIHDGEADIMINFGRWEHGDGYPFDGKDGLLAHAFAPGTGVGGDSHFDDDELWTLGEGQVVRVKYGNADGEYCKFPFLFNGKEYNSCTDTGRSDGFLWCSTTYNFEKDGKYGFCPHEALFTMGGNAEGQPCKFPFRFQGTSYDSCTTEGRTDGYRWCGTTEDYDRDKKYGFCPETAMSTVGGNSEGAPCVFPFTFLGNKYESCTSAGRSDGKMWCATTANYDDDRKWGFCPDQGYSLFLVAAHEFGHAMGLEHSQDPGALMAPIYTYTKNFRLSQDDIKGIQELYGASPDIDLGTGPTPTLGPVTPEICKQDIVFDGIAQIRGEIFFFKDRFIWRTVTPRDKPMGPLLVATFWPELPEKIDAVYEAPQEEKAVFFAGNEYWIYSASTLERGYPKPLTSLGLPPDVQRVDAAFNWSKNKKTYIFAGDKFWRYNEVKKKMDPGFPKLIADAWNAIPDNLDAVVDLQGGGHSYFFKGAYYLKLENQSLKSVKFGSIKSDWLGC
Procedure, shortened: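 Cleavage of the thiopeptide Ac-PLG-[2-mercapto-4-methylpentanoyl]-LG-OC2H5 releases a sulfhydryl that reacts with DTNB, read at 415 nm per the kit protocol. IC50 values (nM) come from inhibition curves of normalized data.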

ADAM17 (TACE) = ADAM17 (TACE) (Homo sapiens, UniProt P78536); assay: TACE fluorometric inhibition assay (Enzo kit BML-AK310); conditions: quenched fluorogenic peptide, ex/em 320/420 nm; read-out: TACE IC50 class
Procedure, shortened: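 Kit-based TACE assay run per manufacturer's protocol, using quenched fluorogenic peptide Mca-PLAQAV-Dpa-RSSSR-NH2 whose cleavage raises Mca fluorescence. Signal read at ex/em 320/420 nm; IC50 (nM) derived from inhibition curves of normalized values.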

MMP13 = molecular target: T2, MMP13 (Homo sapiens, UniProt P45452); assay: MMP-13 colorimetric inhibition assay (Enzo kit BML-AK412); conditions: thiopeptide substrate, absorbance 415 nm; read-out: MMP 13 IC50 class
T2 construct: purchased Enzo Life Sciences, Inc. BML-AK412
Procedure, shortened: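 Thiopeptide chromogenic substrate (Ac-PLG-[2-mercapto-4-methylpentanoyl]-LG-OC2H5); MMP-13 hydrolysis of the thioester yields a thiol that reacts with DTNB, read at 415 nm. IC50 values (nM) derived from inhibition curves of normalized data.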

MMP1 = molecular target: T3, MMP1 (Homo sapiens, UniProt P03956); assay: MMP-1 colorimetric inhibition assay (Enzo kit BML-AK404); conditions: thiopeptide substrate, absorbance 415 nm; read-out: MMP 1 IC50 class
T3 sequence (P03956 100-269 limits assumed): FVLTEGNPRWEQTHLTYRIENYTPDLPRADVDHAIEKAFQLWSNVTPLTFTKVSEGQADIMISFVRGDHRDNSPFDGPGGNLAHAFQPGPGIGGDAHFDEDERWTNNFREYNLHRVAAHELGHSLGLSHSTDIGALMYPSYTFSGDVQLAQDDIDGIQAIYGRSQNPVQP
Procedure, shortened: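 Colorimetric kit run per manufacturer protocol. MMP-1 cleaves a thiopeptide substrate (Ac-PLG-[2-mercapto-4-methylpentanoyl]-LG-OC2H5); released thiol reacts with DTNB, monitored at 415 nm. IC50 (nM) from inhibition curves of normalized values.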

ADAM10 = molecular target: T4, ADAM10 (Homo sapiens, UniProt O14672); assay: SensoLyte 520 ADAM10 fluorometric activity assay (AnaSpec AS-72226)
T4 construct: purchased AnaSpec, Inc. AS-72226
T4 sequence (O14672 214-748): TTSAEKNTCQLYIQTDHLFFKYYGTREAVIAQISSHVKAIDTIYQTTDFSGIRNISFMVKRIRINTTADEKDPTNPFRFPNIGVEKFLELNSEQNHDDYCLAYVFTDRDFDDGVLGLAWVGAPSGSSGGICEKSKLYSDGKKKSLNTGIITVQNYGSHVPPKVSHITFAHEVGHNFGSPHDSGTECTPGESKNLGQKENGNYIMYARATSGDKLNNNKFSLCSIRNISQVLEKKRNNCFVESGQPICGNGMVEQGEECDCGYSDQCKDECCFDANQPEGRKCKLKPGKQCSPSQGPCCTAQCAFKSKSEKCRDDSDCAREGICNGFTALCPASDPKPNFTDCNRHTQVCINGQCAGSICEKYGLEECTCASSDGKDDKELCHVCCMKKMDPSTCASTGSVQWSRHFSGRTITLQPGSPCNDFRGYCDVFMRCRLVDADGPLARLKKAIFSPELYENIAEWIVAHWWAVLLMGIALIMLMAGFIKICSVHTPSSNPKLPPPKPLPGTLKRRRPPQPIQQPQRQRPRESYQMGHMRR
Description: The inhibitory activities of the compounds of the invention were assessed in 96-well microplate format using MMP1, MMP2, MMP9 and MMP13 colorimetric assay kits and TACE fluorometric assay kit from Enzo Life Sciences, Inc. The inhibitory effect of the compounds of the invention on ADAM10 activity were evaluated in 96-well microplate format using fluorometric assay from AnaSpec, Inc.
SensoLyte® 520 ADAM10 Activity Assay Kit (catalog #AS-72226) is a complete assay system designed to screen ADAM10 inhibitors using FRET-based peptide substrate containing the 5-FAM/QXL™ 520 fluorophore/quencher pair. The fluorescence of 5-FAM is quenched by QXL™ 520 and recovered upon cleavage of the peptide by active ADAM10.
The inhibitory activity of the compounds of the invention against ADAM10 was tested according to the manufacturer's assay protocol and the fluorescence was monitored at excitation/emission wavelengths=495 nm/520 nm using Tecan Infinite® 200 Pro F Nano^+ microplate reader.
The normalized values were analyzed using GraphPadPrism 9 for Windows (GraphPad Software, San Diego, CA, USA) software by plotting inhibition curves and determining the IC50 values (in nM).

[1] = FRET peptide substrate, ex/em 495/520 nm, read-out: ADAM 10 IC50 class

MMP9, sequence (P14780 94-707): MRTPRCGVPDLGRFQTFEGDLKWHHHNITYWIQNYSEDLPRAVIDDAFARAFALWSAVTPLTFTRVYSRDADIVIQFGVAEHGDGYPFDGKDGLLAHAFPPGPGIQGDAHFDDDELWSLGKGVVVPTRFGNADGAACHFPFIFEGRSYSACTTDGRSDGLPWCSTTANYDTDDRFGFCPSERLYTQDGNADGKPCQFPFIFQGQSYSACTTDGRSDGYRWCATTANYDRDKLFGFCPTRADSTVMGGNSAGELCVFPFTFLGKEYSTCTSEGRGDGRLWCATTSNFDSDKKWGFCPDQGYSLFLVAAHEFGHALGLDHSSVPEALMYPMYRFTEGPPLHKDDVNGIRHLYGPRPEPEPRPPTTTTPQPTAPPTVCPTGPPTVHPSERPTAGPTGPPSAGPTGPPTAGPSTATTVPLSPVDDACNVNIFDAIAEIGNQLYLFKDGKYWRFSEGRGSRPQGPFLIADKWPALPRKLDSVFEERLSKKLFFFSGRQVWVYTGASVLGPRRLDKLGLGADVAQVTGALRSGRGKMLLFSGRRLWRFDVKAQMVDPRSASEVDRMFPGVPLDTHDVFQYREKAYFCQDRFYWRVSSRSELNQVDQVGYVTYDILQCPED
ADAM17 (TACE), sequence (P78536 215-477 limits assumed): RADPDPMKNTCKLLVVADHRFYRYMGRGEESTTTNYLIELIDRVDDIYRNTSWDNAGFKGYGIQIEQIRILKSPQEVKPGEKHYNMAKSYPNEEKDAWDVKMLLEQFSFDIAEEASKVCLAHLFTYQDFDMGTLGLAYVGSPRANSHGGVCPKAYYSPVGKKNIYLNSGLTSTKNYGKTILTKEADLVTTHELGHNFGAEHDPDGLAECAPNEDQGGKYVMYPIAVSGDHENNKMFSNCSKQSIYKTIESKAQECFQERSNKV

Compound	IC50 (MMP9) [nM]	IC50 (MMP2) [nM]	IC50 (ADAM17 (TACE)) [nM]	IC50 (MMP13) [nM]	IC50 (MMP1) [nM]	IC50 (ADAM10; [1]) [nM]	IC50 (ADAM10) [nM]
COCCOC(=O)N1[C@@H]2CC[C@H]1[C@H](C(=O)NO)N(S(=O)(=O)c1ccc(Oc3ccc(OC(C)(C)C)cc3)nc1)C2 [Example 31, 2-methoxyethyl (1S,2R,5R)-3-((6-(4-(tert-butoxy)-phenoxy)pyridin-3-yl)sulfonyl)-2-(hydroxycarbamoyl)-3,8-diazabicyclo-[3.2.1]octane-8-carboxylate]	< 50	< 50	> 10000	< 50	> 10000	> 10000	–
COCCOC(=O)N1[C@@H]2CC[C@H]1[C@H](C(=O)NO)N(S(=O)(=O)c1ccc(Oc3ccc(C)cc3)nc1)C2 [Example 32, 2-methoxyethyl (1S,2R,5R)-2-(hydroxycarbamoyl)-3-((6-(p-tolyloxy)-pyridin-3-yl)-sulfonyl)-3,8-diazabicyclo[3.2.1]-octane-8-carboxylate]	< 50	< 50	1000 to 10000	< 50	50 to 1000	> 10000	–
CCc1ccc(Oc2ccc(S(=O)(=O)N3C[C@H]4CC[C@@H]([C@@H]3C(=O)NO)N4C(=O)OCCOC)cn2)cc1 [Example 33, 2-methoxyethyl (1S,2R,5R)-3-((6-(4-ethylphenoxy)pyridin-3-yl)sulfonyl)-2-(hydroxycarbamoyl)-3,8-diazabicyclo-[3.2.1]octane-8-carboxylate]	< 50	< 50	1000 to 10000	< 50	1000 to 10000	> 10000	–
COCCOC(=O)N1[C@@H]2CC[C@H]1[C@H](C(=O)NO)N(S(=O)(=O)c1ccc(Oc3ccc(OC)c(F)c3)nc1)C2 [Example 34, 2-methoxyethyl (1S,2R,5R)-3-((6-(3-fluoro-4-methoxy-phenoxy)pyridin-3-yl)sulfonyl)-2-(hydroxycarbamoyl)-3,8-diaza-bicyclo[3.2.1]octane-8-carboxylate]	< 50	< 50	1000 to 10000	< 50	1000 to 10000	1000 to 10000	–
COCCOC(=O)N1[C@@H]2CC[C@H]1[C@H](C(=O)NO)N(S(=O)(=O)c1ccc(Oc3cnn(C)c3)nc1)C2 [Example 36, 2-methoxyethyl (1S,2R,5R)-2-(hydroxycarbamoyl)-3-((6-((1-methyl-1H-pyrazol-4-yl)oxy)-pyridin-3-yl)-sulfonyl)-3,8-diazabicyclo[3.2.1]-octane-8-carboxylate]	< 50	< 50	50 to 1000	< 50	< 50	1000 to 10000	–
COCCOC(=O)N1[C@@H]2CC[C@H]1[C@H](C(=O)NO)N(S(=O)(=O)c1ccc(Oc3cnn(-c4ccccc4)c3)nc1)C2 [Example 39, 2-methoxyethyl (1S,2R,5R)-2-(hydroxycarbamoyl)-3-((6-((1-phenyl-1H-pyrazol-4-yl)oxy)-pyridin-3-yl)sulfonyl)-3,8-diazabicyclo-[3.2.1]octane-8-carboxylate]	< 50	< 50	50 to 1000	< 50	50 to 1000	> 10000	–
COCCOC(=O)N1[C@@H]2CC[C@H]1[C@H](C(=O)NO)N(S(=O)(=O)c1ccc(Oc3cnn(C)c3)c(F)c1)C2 [Example 41, 2-methoxyethyl (1S,2R,5R)-3-((3-fluoro-4-((1-methyl-1H-pyrazol-4-yl)oxy)phenyl)sulfonyl)-2-(hydroxycarbamoyl)-3,8-diazabicyclo[3.2.1]octane-8-carboxylate]	< 50	< 50	50 to 1000	< 50	< 50	50 to 1000	–
COCCOC(=O)N1[C@@H]2CC[C@H]1[C@H](C(=O)NO)N(S(=O)(=O)N1CCC(Oc3ccc(Cl)cc3)CC1)C2 [Example 44, (1S,2R,5R)-2-methoxyethyl 3-((4-(4-chlorophenoxy)piperidin-1-yl)sulfonyl)-2-(hydroxycarbamoyl)-3,8-diazabicyclo[3.2.1]octane-8-carboxylate]	< 50	< 50	< 50	< 50	50 to 1000	–	50 to 1000
COCCOC(=O)N1[C@@H]2CC[C@H]1[C@H](C(=O)NO)N(S(=O)(=O)N1CCC(Oc3ccc(F)cc3)CC1)C2 [Example 45, 2-methoxyethyl (1S,2R,5R)-3-((4-(4-fluoro-phenoxy)-piperidin-1-yl)-sulfonyl)-2-(hydroxy-carbamoyl)-3,8-diazabicyclo-[3.2.1]octane-8-carboxylate]	< 50	< 50	50 to 1000	< 50	50 to 1000	1000 to 10000	–
COCCOC(=O)N1[C@@H]2CC[C@H]1[C@H](C(=O)NO)N(S(=O)(=O)N1CCC(Oc3ccc(C(F)(F)F)cc3)CC1)C2 [Example 48, 2-methoxyethyl (1S,2R,5R)-2-(hydroxy-carbamoyl)-3-((4-(4-(trifluoromethyl)phenoxy)-piperidin-1-yl)-sulfonyl)-3,8-diazabicyclo-[3.2.1]octane-8-carboxylate]	< 50	< 50	< 50	< 50	1000 to 10000	–	50 to 1000
CC(=O)N1[C@@H]2CC[C@H]1[C@H](C(=O)NO)N(S(=O)(=O)c1ccc(Oc3ccc(F)cc3)nc1)C2 [Example 53, (1S,2R,5R)-8-acetyl-3-((6-(4-fluorophenoxy)pyridin-3-yl)sulfonyl)-N-hydroxy-3,8-diazabicyclo[3.2.1]octane-2-carboxamide]	< 50	< 50	1000 to 10000	< 50	50 to 1000	> 10000	–
